Laboratory results published in US11297838B2, “Pesticidal compositions and methods” (CORTEVA AGRISCIENCE LLC, priority 2018, dated 2022).

Columns and labels:
Format in all cases: in vivo
[1] = test system: Beet Armyworm (Spodoptera exigua, LAPHEG); experiment: Insecticidal test for beet armyworm (BAW), 128-well diet tray assay; settings: 168 h, 50 μg/cm^2 on artificial diet, second instar larvae, five to seven days, 25° C., read-out: BAW rating, % Control (or Mortality)
Procedure: Insecticidal Test for Beet Armyworm (Spodoptera exigua, LAPHEG) (“BAW”)
Bioassays on beet armyworm (BAW; Spodoptera exigua: Lepidoptera) are conducted using a 128-well diet tray assay. One to five second instar BAW larvae are placed in each well (3 mL) of the diet tray that had been previously filled with 1 mL of artificial diet to which 50 μg/cm^2 of the test compound (dissolved in 50 μL of 90:10 acetone-water mixture) had been applied (to each of eight wells) and then allowed to dry. Trays are covered with a clear self-adhesive cover, vented to allow gas exchange, and held at 25° C., 14:10 light-dark for five to seven days. Percent mortality is recorded for the larvae in each well; activity in the eight wells is then averaged. In the reporting of the results, the “BAW & CL Rating Table” was used.

[2] = test system: Yellow Fever Mosquito (Aedes aegypti, AEDSAE); settings: about 1 day-old larvae, 4000 ppm master solution diluted, 3 days, room temperature
Procedure: Insecticidal Test for Yellow Fever Mosquito (Aedes aegypti, AEDSAE) (“YFM”)
Master plates containing 400 μg of a molecule dissolved in 100 μL of dimethyl sulfoxide (DMSO) (equivalent to a 4000 ppm solution) are used. A master plate of assembled molecules contains 15 μL per well. To this plate, 135 μL of a 90:10 water/acetone mixture is added to each well. A robot (Biomek® NXP Laboratory Automation Workstation) is programmed to dispense 15 μL aspirations from the master plate into an empty 96-well shallow plate (“daughter” plate). There are 6 reps (“daughter” plates) created per master. The created “daughter” plates are then immediately infested with YFM larvae.
The day before plates are to be treated, mosquito eggs are placed in Millipore water containing liver powder to begin hatching (4 g. into 400 mL). After the “daughter” plates are created using the robot, they are infested with 220 μL of the liver powder/larval mosquito mixture (about 1 day-old larvae). After plates are infested with mosquito larvae, a non-evaporative lid is used to cover the plate to reduce drying. Plates are held at room temperature for 3 days prior to grading. After 3 days, each well is observed and scored based on mortality. In the reporting of the results, the “YFM Rating Table” was used.

[3] = test system: Cabbage Looper (Trichloplusia ni, TRIPNI); experiment: Insecticidal test for cabbage looper (CL), 128-well diet tray assay; settings: Trichoplusia ni, 168 h; 50 μg/cm^2 on artificial diet, second instar larvae, five to seven days, 25° C.; read-out: CL rating, % Control (or Mortality)
Procedure: Insecticidal Test for Cabbage Looper (Trichloplusia ni, TRIPNI) (“CL”)
Bioassays on cabbage looper (CL; Trichloplusia ni: Lepidoptera) are conducted using a 128-well diet tray assay. One to five second instar CL larvae are placed in each well (3 mL) of the diet tray that had been previously filled with 1 mL of artificial diet to which 50 μg/cm^2 of the test compound (dissolved in 50 μL of 90:10 acetone-water mixture) had been applied (to each of eight wells) and then allowed to dry. Trays are covered with a clear self-adhesive cover, vented to allow gas exchange, and held at 25° C., 14:10 light-dark for five to seven days. Percent mortality is recorded for the larvae in each well; activity in the eight wells is then averaged. In the reporting of the results, the “BAW & CL Rating Table” was used.

[4] = test system: Beet Armyworm (Spodoptera exigua, LAPHEG); experiment: Insecticidal test for beet armyworm (BAW), 128-well diet tray assay; settings: 168 h, tested at 5 μg/cm^2, second instar larvae, five to seven days, read-out: BAW rating, % Control (or Mortality)
[5] = test system: Cabbage Looper (Trichloplusia ni, TRIPNI); experiment: Insecticidal test for cabbage looper (CL), 128-well diet tray assay; settings: Trichoplusia ni, 168 h; tested at 5 μg/cm^2, second instar larvae, five to seven days; read-out: CL rating, % Control (or Mortality)

SMILES	mortality at 50 µg/cm2 [1] [%]	YFM rating, % Control (or Mortality) [2]	mortality at 50 µg/cm2 [3] [%]	mortality at 5 µg/cm2 [4] [%]	mortality at 5 µg/cm2 [5] [%]
CCOc1ccccc1N1C(=O)CS/C1=N\C(=O)OCCc1ccc(-c2ncn(-c3ccc(OC(F)(F)F)cc3)n2)cc1 [A5, 4-(1-(4-(Trifluoromethoxy)phenyl)-1H-1,2,4-triazol-3-yl)phenethyl (Z)-(3-(2-ethoxyphenyl)-4-oxothiazolidin-2-ylidene)carbamate]	0 to 50	A (80-100)	50 to 100	–	–
CCCCc1ccccc1N1C(=O)CS/C1=N\C(=O)OCCc1ccc(-c2ncn(-c3ccc(OC(F)(F)F)cc3)n2)cc1 [A6, 4-(1-(4-(Trifluoromethoxy)phenyl)-1H-1,2,4-triazol-3-yl)phenethyl (Z)-(3-(2-butylphenyl)-4-oxothiazolidin-2-ylidene)carbamate]	50 to 100	A (80-100)	50 to 100	–	–
O=C(/N=C1\SCC(=O)N1c1ccccc1CCC1CC1)OCCc1ccc(-c2ncn(-c3ccc(OC(F)(F)F)cc3)n2)cc1 [A7, 4-(1-(4-(Trifluoromethoxy)phenyl)-1H-1,2,4-triazol-3-yl)phenethyl (Z)-(3-(2-(2-cyclopropylethyl)phenyl)-4-oxothiazolidin-2-ylidene)carbamate]	0 to 50	A (80-100)	50 to 100	–	–
O=C(/N=C1\SCC(=O)N1c1ccccc1CCC(F)(F)F)OCCc1ccc(-c2ncn(-c3ccc(OC(F)(F)F)cc3)n2)cc1 [A8, 4-(1-(4-(Trifluoromethoxy)phenyl)-1H-1,2,4-triazol-3-yl)phenethyl (Z)-(4-oxo-3-(2-(3,3,3-trifluoropropyl)phenyl)thiazolidin-2-ylidene)carbamate]	50 to 100	A (80-100)	50 to 100	–	–
O=C(/N=C1\SCC(=O)N1c1ccccc1/C=C/C(F)(F)F)OCCc1ccc(-c2ncn(-c3ccc(OC(F)(F)F)cc3)n2)cc1 [A9, 4-(1-(4-(Trifluoromethoxy)phenyl)-1H-1,2,4-triazol-3-yl)phenethyl ((Z)-4-oxo-3-(2-((E)-3,3,3-trifluoroprop-1-en-1-yl)phenyl)thiazolidin-2-ylidene)carbamate]	50 to 100	A (80-100)	50 to 100	–	–
COc1ccc(N2C(=O)CS/C2=N\C(=O)OCCc2ccc(-c3ncn(-c4ccc(OC(F)(F)F)cc4)n3)cc2)c(C)c1 [A10, 4-(1-(4-(Trifluoromethoxy)phenyl)-1H-1,2,4-triazol-3-yl)phenethyl (Z)-(3-(4-methoxy-2-methylphenyl)-4-oxothiazolidin-2-ylidene)carbamate]	0	A (80-100)	50 to 100	–	–
Cc1ccc(F)c(N2C(=O)CS/C2=N\C(=O)OCCc2ccc(-c3ncn(-c4ccc(OC(F)(F)F)cc4)n3)cc2)c1 [A11, 4-(1-(4-(Trifluoromethoxy)phenyl)-1H-1,2,4-triazol-3-yl)phenethyl (Z)-(3-(2-fluoro-5-methylphenyl)-4-oxothiazolidin-2-ylidene)carbamate]	0 to 50	A (80-100)	50 to 100	–	–
Cc1ccc(Cl)c(N2C(=O)CS/C2=N\C(=O)OCCc2ccc(-c3ncn(-c4ccc(OC(F)(F)F)cc4)n3)cc2)c1 [A12, 4-(1-(4-(Trifluoromethoxy)phenyl)-1H-1,2,4-triazol-3-yl)phenethyl (Z)-(3-(2-chloro-5-methylphenyl)-4-oxothiazolidin-2-ylidene)carbamate]	50 to 100	A (80-100)	50 to 100	–	–
COc1ccc(C)cc1N1C(=O)CS/C1=N\C(=O)OCCc1ccc(-c2ncn(-c3ccc(OC(F)(F)F)cc3)n2)cc1 [A13, 4-(1-(4-(Trifluoromethoxy)phenyl)-1H-1,2,4-triazol-3-yl)phenethyl (Z)-(3-(2-methoxy-5-methylphenyl)-4-oxothiazolidin-2-ylidene)carbamate]	50 to 100	A (80-100)	50 to 100	–	–
Cc1ccc(C(F)(F)F)c(N2C(=O)CS/C2=N\C(=O)OCCc2ccc(-c3ncn(-c4ccc(OC(F)(F)F)cc4)n3)cc2)c1 [A14, 4-(1-(4-(Trifluoromethoxy)phenyl)-1H-1,2,4-triazol-3-yl)phenethyl (Z)-(3-(5-methyl-2-(trifluoromethyl)phenyl)-4-oxothiazolidin-2-ylidene)carbamate]	50 to 100	A (80-100)	50 to 100	–	–
CCCc1ccc(C)cc1N1C(=O)CS/C1=N\C(=O)OCCc1ccc(-c2ncn(-c3ccc(OC(F)(F)F)cc3)n2)cc1 [A15, 4-(1-(4-(Trifluoromethoxy)phenyl)-1H-1,2,4-triazol-3-yl)phenethyl (Z)-(3-(5-methyl-2-propylphenyl)-4-oxothiazolidin-2-ylidene)carbamate]	50 to 100	A (80-100)	50 to 100	–	–
CCOc1ccc(C)cc1N1C(=O)CS/C1=N\C(=O)OCCc1ccc(-c2ncn(-c3ccc(OC(F)(F)F)cc3)n2)cc1 [A16, 4-(1-(4-(Trifluoromethoxy)phenyl)-1H-1,2,4-triazol-3-yl)phenethyl (Z)-(3-(2-ethoxy-5-methylphenyl)-4-oxothiazolidin-2-ylidene)carbamate]	50 to 100	A (80-100)	50 to 100	–	–
Cc1cc(N2C(=O)CS/C2=N\C(=O)OCCc2ccc(-c3ncn(-c4ccc(OC(F)(F)F)cc4)n3)cc2)c(C(C)C)cc1F [A17, 4-(1-(4-(Trifluoromethoxy)phenyl)-1H-1,2,4-triazol-3-yl)phenethyl (Z)-(3-(4-fluoro-2-isopropyl-5-methylphenyl)-4-oxothiazolidin-2-ylidene)carbamate]	50 to 100	A (80-100)	50 to 100	–	–
Cc1cc(Cl)c(N2C(=O)CS/C2=N\C(=O)OCCc2ccc(-c3ncn(-c4ccc(OC(F)(F)F)cc4)n3)cc2)cc1C [A18, 4-(1-(4-(Trifluoromethoxy)phenyl)-1H-1,2,4-triazol-3-yl)phenethyl (Z)-(3-(2-chloro-4,5-dimethylphenyl)-4-oxothiazolidin-2-ylidene)carbamate]	0	D (No activity noticed in this bioassay)	0	–	–
Cc1ccc(C(C)C)c(N2C(=O)CS/C2=N\C(=O)OC(C)Cc2ccc(-c3ncn(-c4ccc(OC(F)(F)F)cc4)n3)cc2)c1 (centres unmarked) [A19, 1-(4-(1-(4-(Trifluoromethoxy)phenyl)-1H-1,2,4-triazol-3-yl)phenyl)propan-2-yl (Z)-(3-(2-isopropyl-5-methylphenyl)-4-oxothiazolidin-2-ylidene)carbamate]	50 to 100	B (More than 0-Less than 80)	50 to 100	–	–
Cc1ccc(C(C)C)c(N2C(=O)CS/C2=N\C(=O)OCC(F)c2ccc(-c3ncn(-c4ccc(OC(F)(F)C(F)(F)F)cc4)n3)cc2)c1 (centres unmarked) [A26, 2-Fluoro-2-(4-(1-(4-(perfluoroethoxy)phenyl)-1H-1,2,4-triazol-3-yl)phenyl)ethyl (Z)-(3-(2-isopropyl-5-methylphenyl)-4-oxothiazolidin-2-ylidene)carbamate]	–	–	–	50 to 100	0 to 50
